In data set [1] the test system is Trypanosoma cruzi. Briefly: Trypanocidal activity against GFP expressing Trypanosoma cruzi Y epimastigotes assessed as inhibition of parasite proliferation at 1 uM to 20 uM and measured during stationary phase by hemocytometry based cell counting method. In kind it is functional, organism-based.
The target of data set [2] is Cruzipain (Trypanosoma cruzi) (UniProt P25779). The experiment in a line: Inhibition of Trypanosoma cruzi cruzaine at 100 uM using mMBz-Pro-Phe-Arg-pNA substrate incubated for 5 mins by UV-vis spectrophotometry.
Sequence of Cruzipain (Trypanosoma cruzi) (P25779 123-467 limits assumed): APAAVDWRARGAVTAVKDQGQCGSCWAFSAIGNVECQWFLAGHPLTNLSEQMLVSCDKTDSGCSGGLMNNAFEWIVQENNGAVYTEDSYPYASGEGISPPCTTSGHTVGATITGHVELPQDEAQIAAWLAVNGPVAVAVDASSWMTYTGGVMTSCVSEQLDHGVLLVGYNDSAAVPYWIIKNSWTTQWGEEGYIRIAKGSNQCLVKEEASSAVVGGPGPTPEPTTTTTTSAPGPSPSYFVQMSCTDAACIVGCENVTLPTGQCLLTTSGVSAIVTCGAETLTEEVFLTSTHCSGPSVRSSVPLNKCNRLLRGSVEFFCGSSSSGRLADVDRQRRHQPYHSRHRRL
Data set [3] has as its system Trypanosoma cruzi. Briefly: Trypanocidal activity against GFP expressing Trypanosoma cruzi Y epimastigotes assessed as effect on parasite morphology at 1 uM to 20 uM measured after 1 to 3 days by hemocytometry based cell counting method. It counts as functional, organism-based.
For data set [4], the target named is Cruzipain (Trypanosoma cruzi) (UniProt P25779). The experiment in a line: Inhibition of Trypanosoma cruzi cruzaine using mMBz-Pro-Phe-Arg-pNA substrate incubated for 5 mins by UV-vis spectrophotometry.
Data set [5] relates to Trypanosoma cruzi. The experiment in a line: Trypanocidal activity against GFP expressing Trypanosoma cruzi Y epimastigotes in rat H9C2 cell monolayers for 24 hrs infected with 30 mins compound pre-treated parasite obtained from infected African green monkey Vero cells assessed as reduction in parasite count at 10 uM measured after 96 hrs by confocal microscopy. In kind it is functional, organism-based.

Data set [6] relates to Trypanosoma cruzi. The experiment in a line: Trypanocidal activity against GFP expressing Trypanosoma cruzi Y epimastigotes in rat H9C2 cell monolayers for 12 hrs infected with 30 mins compound pre-treated parasite obtained from infected African green monkey Vero cells assessed as reduction in parasite count at 10 uM measured after 48 hrs by confocal microscopy. It counts as functional, organism-based.

In data set [7] the test system is Trypanosoma cruzi. Briefly: Trypanocidal activity against GFP expressing Trypanosoma cruzi Y epimastigotes assessed as effect on parasite motility at 1 uM to 20 uM measured after 1 to 3 days by hemocytometry based cell counting method. In kind it is functional, organism-based.
In data set [8] the test system is Trypanosoma cruzi. The experiment in a line: Trypanocidal activity against GFP expressing Trypanosoma cruzi Y epimastigotes in rat H9C2 cell monolayers for 12 hrs infected with 30 mins compound pre-treated parasite obtained from infected African green monkey Vero cells assessed as reduction in cell invasion at 10 uM measured after 48 hrs by confocal microscopy. It counts as functional.

For data set [9], the system named is H9c2. Briefly: Cytotoxicity against rat H9c2 cells assessed as effect on metabolic activity at 10 uM by alamar blue assay. It counts as ADME, cell-based. As to conditions: h9c2, 10 µM. For orientation: Resazurin is reduced to fluorescent resorufin, in cell work by metabolically active cells.
Data set [10] relates to Trypanosoma cruzi. The experiment in a line: Trypanocidal activity against GFP expressing Trypanosoma cruzi Y epimastigotes assessed as inhibition of parasite proliferation at 20 uM measured after few hrs by hemocytometry based cell counting method. It counts as functional, organism-based.
The test system of data set [11] is Plasma. The experiment in a line: Plasma concentration in leprosy patient at […], po dosed daily. It counts as ADME, organism-based. Details: route oral. As to conditions: human, in vivo.
Data set [12] relates to Trypanosoma cruzi. The experiment in a line: Trypanocidal activity against GFP expressing Trypanosoma cruzi Y C57BL/6J mouse acute model of trypanosomal infection assessed as reduction in parasitemia at 20 mg/kg/day, ip measured at 10,14 and 20 days post infection. In kind it is functional. As to conditions: route intraperitoneal.
Data set [13] has as its system Trypanosoma cruzi. The experiment in a line: Trypanocidal activity against GFP expressing Trypanosoma cruzi Y epimastigotes in rat H9C2 cell monolayers for 12 hrs infected with 30 mins compound pre-treated parasite obtained from infected African green monkey Vero cells assessed as reduction in cell invasion at 5 uM measured after 48 hrs by confocal microscopy. In kind it is functional.

Data set [14] deals with Trypanosoma cruzi. The experiment in a line: Trypanocidal activity against GFP expressing Trypanosoma cruzi Y C57BL/6J mouse acute model of trypanosomal infection assessed as reduction in cardiac amastigote nests counts at 20 mg/kg/day, ip measured at 10,14 and 20 days post infection by HE staining based conventional microscopy. It counts as functional, organism-based.
The test system of data set [15] is Trypanosoma cruzi. Briefly: Trypanocidal activity against GFP expressing Trypanosoma cruzi Y epimastigotes assessed as inhibition of parasite proliferation at 1 uM to 20 uM and measured after 4 days by hemocytometry based cell counting method. It counts as functional. As to conditions: 96 h.
Data set [16] is described as follows: Toxicity in orally dosed mouse. Conditions: in vivo, po. In kind it is organism-based.
The test system of data set [17] is Trypanosoma cruzi. Briefly: Trypanocidal activity against GFP expressing Trypanosoma cruzi Y epimastigotes in rat H9C2 cell monolayers for 12 hrs infected with 30 mins compound pre-treated parasite obtained from infected African green monkey Vero cells assessed as reduction in parasite count at 5 uM measured after 48 hrs by confocal microscopy. It counts as functional, organism-based.

The subject of data set [18] is Trypanosoma cruzi. Briefly: Trypanocidal activity against GFP expressing Trypanosoma cruzi Y epimastigotes in rat H9C2 cell monolayers for 24 hrs infected with 30 mins compound pre-treated parasite obtained from infected African green monkey Vero cells assessed as reduction in parasite count at 5 uM measured after 96 hrs by confocal microscopy. In kind it is functional, organism-based.

Data set [19] has as its system H9c2. Briefly: Cytotoxicity against rat H9c2 cells assessed as effect on metabolic activity at 5 uM by alamar blue assay. In kind it is ADME, cell-based. Conditions: h9c2, 5 µM.
Data set [20] concerns Trypanosoma cruzi. Briefly: Trypanocidal activity against GFP expressing Trypanosoma cruzi Y epimastigotes in rat H9C2 cell monolayers for 12 hrs infected with 30 mins compound pre-treated parasite obtained from infected African green monkey Vero cells assessed as reduction in cell invasion at 2.5 uM measured after 48 hrs by confocal microscopy. In kind it is functional.
Data set [21] deals with Trypanosoma cruzi. The experiment in a line: Trypanocidal activity against GFP expressing Trypanosoma cruzi Y epimastigotes in rat H9C2 cell monolayers for 24 hrs infected with 30 mins compound pre-treated parasite obtained from infected African green monkey Vero cells assessed as reduction in parasite count at 2.5 uM measured after 96 hrs by confocal microscopy. In kind it is functional, organism-based.

The test system of data set [22] is Trypanosoma cruzi. Briefly: Trypanocidal activity against GFP expressing Trypanosoma cruzi Y C57BL/6J mouse acute model of trypanosomal infection assessed as reduction in parasitemia at 10 mg/kg/day, ip measured at 10,14 and 20 days post infection. In kind it is functional. Conditions: route intraperitoneal.
In data set [23] the test system is H9c2. The experiment in a line: Cytotoxicity against rat H9c2 cells assessed as effect on metabolic activity at 2.5 uM by alamar blue assay. It counts as ADME, cell-based. Conditions: h9c2, 2.5 µM.
Data set [24] has as its system Trypanosoma cruzi. The experiment in a line: Trypanocidal activity against GFP expressing Trypanosoma cruzi Y epimastigotes in rat H9C2 cell monolayers for 12 hrs infected with 30 mins compound pre-treated parasite obtained from infected African green monkey Vero cells assessed as reduction in parasite count at 2.5 uM measured after 48 hrs by confocal microscopy. In kind it is functional, organism-based.

Data set [25] relates to Trypanosoma cruzi. Briefly: Trypanocidal activity against GFP expressing Trypanosoma cruzi Y C57BL/6J mouse acute model of trypanosomal infection assessed as reduction in parasitemia at 100 mg/kg/day, ip measured at 10,14 and 20 days post infection. In kind it is functional, organism-based.
In data set [26] the test system is Trypanosoma cruzi. Briefly: Trypanocidal activity against GFP expressing Trypanosoma cruzi Y C57BL/6J mouse acute model of trypanosomal infection assessed as reduction in cardiac amastigote nests counts at 100 mg/kg/day, ip measured at 10,14 and 20 days post infection by HE staining based conventional microscopy. In kind it is functional, organism-based.

The source made the active and inactive calls. The calls are words filed in the database; no cut-off is given here. Where only a bound is given, the exact number is not on record here.

On to `CC(C)(C)NC(=O)[C@@H]1C[C@@H]2CCCC[C@@H]2CN1C[C@@H](O)[C@H](Cc1ccccc1)NC(=O)[C@H](CC(N)=O)NC(=O)c1ccc2ccccc2n1` [SAQUINAVIR], for which the inhibition result in data set [1] and in [2] was “Active” throughout. The outcome in [3], in data set [5], in data set [6] and in data set [7] was Active. The inhibition result in data set [4] is “Dose-dependent effect”. For the same compound, in data set [8], the “fold change (FC)” value was found to be 3. For the same compound, in [9], the Activity entry is “Non-toxic”.
For the compound `COc1ccc(CCN(C)CCCC(C#N)(c2ccc(OC)c(OC)c2)C(C)C)cc1OC` (configuration not stated), the inhibition result in data set [2] was “inactive”.
What is called inhibition in vivo is the relative decrease from the control value, in per cent. As usually defined, the LC50 is the concentration that kills 50% of the test population. Broadly, the LD50 is the dose expected to kill half of the subjects tested. Take `CC(C)/N=c1\cc2n(-c3ccc(Cl)cc3)c3ccccc3nc-2cc1Nc1ccc(Cl)cc1` [CLOFAZIMINE]: the inhibition result in [10], in data set [2] and in data set [14] was “Active” each time. The concentration in [11] came out at 2100 nM. The outcome in data set [3], in [17], in data set [7] and in data set [18] was Active. The inhibition result in [4] was “Dose-dependent effect”. Besides, the inhibition in vivo at 20 mg/kg/day in [12] worked out at 40%. In [13], the “fold change (FC)” value is 3. Moreover, the LC50 in data set [15] was 10.6 µM. In data set [16], this compound displayed an LD50 of 5000 mg/kg. For the same compound, the Activity entry in data set [19] is “Non-toxic”.
With `COC(=O)C1=C(C)NC(C)=C(C(=O)OC2CCCN(Cc3ccccc3)C2)C1c1cccc([N+](=O)[O-])c1` (configuration not stated) [BENIDIPINE], in data set [20], the “fold change (FC)” value stood at 3. In addition, the inhibition result in [2] is “Active”. In addition, the outcome in data set [21], in data set [3], in data set [24] and in data set [7] was Active. The inhibition result in data set [4] was “Dose-dependent effect”. The inhibition in vivo at 10 mg/kg/day in data set [22] came to 40%. Further, the Activity entry in [23] is on record as “Non-toxic”. For the same compound, the LC50 in data set [15] came out at 19.5 µM. The LD50 in data set [16] is above 300 mg/kg.
For `O=C(Cn1ccnc1[N+](=O)[O-])NCc1ccccc1`, the inhibition entry in data set [25] and in [26] was “Active” in each case.

For the origin of these results see ChEMBL document CHEMBL3407344, “Computer-guided drug repurposing: identification of trypanocidal activity of clofazimine, benidipine and saquinavir” (Eur J Med Chem, 2015).
